Where a name gives a salt, the structure may show the parent alone.
Biological target: RIPK1 (recombinant GST-RIPK1 kinase domain, residues 1-327) (Homo sapiens (Human), UniProt Q13546)
Test: RIPK1-ADP-Glo Enzymatic Assay
Assay type: biochemical
Settings: ADP-Glo; 25 nM GST-RIPK1, 300 μM ATP; assay lower limit ~25 nM; read-out: RIPK1 V0 Ec50
Protocol: RIPK1-ADP-Glo Enzymatic Assay
The enzymatic activity of RIPK1 is measured using an assay derived from ADP-Glo kit (TMPromega), which provides a luminescent-based ADP detection system. Specifically, the ADP generated by RIPK1 kinase is proportionally detected as luminescent signals in a homogenous fashion. In this context, the assessment of the inhibitory effect of small molecules (EC50) is measured by the effectiveness of the compounds to inhibit the ATP to ADP conversion by RIPK1.
In this assay, the potency (EC50) of each compound was determined from a ten-point (1:3 serial dilution; top compound concentration of 100000 nM) titration curve using the following outlined procedure. The assay bottom or lower limit of confidence is ˜25 nM. To each well of a white ProxiPlus 384 well-plate, 30 nL of compound (1% DMSO in final assay volume of 3 μL) was dispensed, followed by the addition of 2 μL of 1×assay buffer (25 mM Hepes 7.3, 20 mM MgCl2, 50 mM NaCl, 1 mM DTT, 0.005% Tween20, and 0.02% BSA) containing 37.5 nM of GST-RIPK1 (recombinant GST-RIPK1 kinase domain (residues 1-327) enzyme produced from baculovirus-transfected Sf21 cells: MW=62 kDa). Plates were placed in an ambient temperature humidified chamber for a 30-minute pre-incubation with compound. Subsequently, each reaction was initiated by the addition of 1 μL 1×assay buffer containing 900 μM ATP and […] dephosphorylated-MBP substrate. The final reaction in each well of 3 μL consists of 25 nM of GST-RIPK1, 300 μM ATP, and 3 μM dephosphorylated-MBP. Kinase reactions were allowed to proceed for 150 minutes prior to adding ADP-Glo reagents per Promega's outlined kit protocol. Dose-response curves were generated by plotting percent effect (% product conversion; Y-axis) vs. Log10 compound concentrations (X-axis). EC50 values were calculated using a non-linear regression, four-parameters sigmoidal dose-response model.

RIPK1 (recombinant GST-RIPK1 kinase domain, residues 1-327), sequence (Q13546 1-327): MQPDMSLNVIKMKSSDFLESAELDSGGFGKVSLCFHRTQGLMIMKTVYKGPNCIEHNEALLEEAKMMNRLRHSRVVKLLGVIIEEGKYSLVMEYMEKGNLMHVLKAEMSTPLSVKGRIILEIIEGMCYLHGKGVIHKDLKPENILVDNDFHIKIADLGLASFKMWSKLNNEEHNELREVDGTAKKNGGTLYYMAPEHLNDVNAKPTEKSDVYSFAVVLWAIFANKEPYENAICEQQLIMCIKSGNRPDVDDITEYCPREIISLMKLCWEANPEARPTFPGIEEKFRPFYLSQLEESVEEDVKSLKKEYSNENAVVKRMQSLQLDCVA

Structure (SMILES) | EC50
O=C1N2[C@@H](CC[C@H]2c2cc(F)cc(F)c2)OC12CCN(c1cccc3nccn13)CC2 [Example 13.5, (5′S,7a′R)-5′-(3,5-difluorophenyl)-1-(imidazo[1,2-a]pyridin-5-yl)tetrahydro-3′H-spiro[piperidine-4,2′-pyrrolo[2,1-b]oxazol]-3′-one, TFA salt] | 98.4 nM
O=C(c1cc(F)ccc1Cl)N1CCC2(CC1)O[C@@H]1CC[C@@H](c3ccccc3F)N1C2=O [Example 1.15, (5′S,7a′R)-1-(2-chloro-5-fluorobenzoyl)-5′-(2-fluorophenyl)tetrahydro-3′H-spiro[piperidine-4,2′-pyrrolo[2,1-b]oxazol]-3′-one] | 33.4 nM
N#Cc1ccc(N2CCC3(CC2)S[C@@H]2CC[C@@H](c4ccccc4)N2C3=O)n2nccc12 [Example 4.145, 7-[(5′S,7a′R)-3′-oxo-5′-phenyltetrahydro-1H,3′H-spiro[piperidine-4,2′-pyrrolo[2,1-b] [1,3]thiazol]-1-yl]pyrazolo[1,5-a] pyridine-4-carbonitrile] | < 25 nM
Cc1cc(C)cc(C(=O)N2CCC3(CC2)O[C@@H]2CC[C@@H](c4ccccc4)N2C3=O)c1 [Example 6.150, (5′S,7a′R)-1-(3,5-dimethylbenzene-1-carbonyl)-5′-phenyl-tetrahydro-3′H-spiro [piperidine-4,2′-pyrrolo[2,1-b][1,3]oxazol]-3′-one] | 118 nM
O=C(c1ccccc1F)N1CCC2(CC1)O[C@@H]1CC[C@@H](c3ccccc3)N1C2=O [Example 1.10, (5′S,7a′R)-1-(2-fluorobenzene-1-carbonyl)-5′-phenyltetrahydro-3′H-spiro[piperidine-4,2′-pyrrolo[2,1-b] [1,3]oxazol]-3′-one] | < 25 nM
N#Cc1cccc([C@@H]2CC[C@H]3OC4(CCN(c5ccnc6c(F)cnn56)CC4)C(=O)N32)c1F [Example 20.5, 2-fluoro-3-[(5′S,7a′R)-1-(3-fluoropyrazolo[1,5-a]pyrimidin-7-yl)-3′-oxotetrahydro-3′H-spiro[piperidine-4,2′-pyrrolo[2,1-b][1,3]oxazol]-5′-yl]benzonitrile] | < 25 nM
CC1CC2(CCN1c1ncnc3ccnn13)O[C@@H]1CC[C@@H](c3cc(F)cc(F)c3)N1C2=O (stereo partly drawn) [Example 4.213, (5′S,7a′R)-5′-(3,5-difluorophenyl)-2-methyl-1-(pyrazolo[1,5-a] [1,3,5]triazin-4-yl)tetrahydro-3′H-spiro[piperidine-4,2′-pyrrolo[2,1-b] [1,3]oxazol]-3′-one] | < 25 nM
CC1CN(c2cccc3ncnn23)CCC12O[C@@H]1CC[C@@H](c3ccccc3)N1C2=O (stereo partly drawn) [Example 4.243, (4R,5′S,7a′R)-3-methyl-5′-phenyl-1-([1,2,4]triazolo[1,5-a]pyridin-5-yl)tetrahydro-3′H-spiro[piperidine-4,2′-pyrrolo[2,1-b] [1,3]oxazol]-3′-one] | 26.3 nM
CCOc1cccc(C(=O)N2CCC3(CC2)O[C@@H]2CC[C@@H](c4ccccc4)N2C3=O)c1 [Example 6.139, (5′S,7a′R)-1-(3-ethoxybenzene-1-carbonyl)-5′-phenyl-tetrahydro-3′H-spiro [piperidine-4,2′-pyrrolo[2,1-b][1,3]-oxazol]-3′-one] | < 25 nM
O=C(c1c(F)cc(F)cc1F)N1CCC2(CC1)O[C@@H]1CC[C@@H](c3cc(F)cc(F)c3)N1C2=O [Example 5.2, (5′S,7a′R)-5′-(3,5-difluoro-phenyl)-1-(2,4,6-trifluoro-benzene-1-carbonyl)tetra-hydro-3′H-spiro[piperi-dine-4,2′-pyrrolo[2,1-b] [1,3]oxazol]-3′-one] | < 25 nM
C#Cc1ccnc(C(=O)N2CCC3(CC2)O[C@@H]2CC[C@@H](c4cc(F)cc(F)c4)N2C3=O)c1 [Example 5.43, (5′S,7a′R)-5′-(3,5-difluoro-phenyl)-1-(4-ethynylpico-linoyl)tetrahydro-3′H-spiro[piperidine-4,2′-pyrrolo[2,1-b]oxazol]-3′-one] | < 25 nM
O=C1N2[C@@H](CC[C@H]2c2cc(F)cc(F)c2)OC12CCN(c1ncc(Cl)cn1)CC2 [Example 4.63, (5′S,7a′R)-1-(5-chloropyrimidin-2-yl)-5′-(3,5-difluorophenyl)tetrahydro-3′H-spiro[piperidine-4,2′-pyrrolo[2,1-b] [1,3]oxazol]-3′-one] | 48.6 nM
O=C1N2[C@@H](CC[C@H]2c2cc(F)cc(F)c2)OC12CCN(c1nccn3nccc13)CC2 [Example 13.12, (5′S,7a′R)-5′-(3,5-difluorophenyl)-1-(pyrazolo[1,5-a]pyrazin-4-yl)tetrahydro-3′H-spiro[piperidine-4,2′-pyrrolo[2,1-b]oxazol]-3′-one, TFA salt] | < 25 nM
C#Cc1cccc(C(=O)N2CCC3(CC2)O[C@@H]2CC[C@@H](c4cccc(F)c4)N2C3=O)c1 [Example 6.123, (5′S,7a′R)-1-(3-ethynylbenzene-1-carbonyl)-5′-(3-fluoro-phenyl)tetrahydro-3′H-spiro[piperidine-4,2′-pyrrolo[2,1-b][1,3]oxazol]-3-one] | < 25 nM
O=C(c1ccoc1)N1CCC2(CC1)O[C@@H]1CC[C@@H](c3cc(F)cc(F)c3)N1C2=O [Example 5.36, (5′S,7a′R)-5′-(3,5-difluoro-phenyl)-1-(furan-3-carbon-yl)tetrahydro-3′H-spiro [piperidine-4,2′-pyrrolo-[2,1-b]oxazol]-3′-one] | < 25 nM
N#Cc1cccc(CN2CCC3(CC2)O[C@@H]2CC[C@@H](c4cc(F)cc(F)c4)N2C3=O)c1 [Example 22.6, 3-{[(5′S,7a′R)-5′-(3,5-difluorophenyl)-3′-oxotetrahydro-1H,3′H-spiro[piperidine-4,2′-pyrrolo[2,1-b][1,3]oxazol]-1-yl]methyl}benzonitrile] | 234 nM
N#Cc1cc(N2CCC3(CC2)C[C@@H]2OC[C@@H](c4ccccc4)N2C3=O)ncn1 [Example 4.113, 6-[(3′R,7a′S)-5′-oxo-3′-phenyltetrahydro-1H,5′H-spiro[piperidine-4,6′-pyrrolo[2,1-b] [1,3]oxazol]-1-yl]pyrimidine-4-carbonitrile] | 309 nM
Cc1ncc([C@@H]2CC[C@H]3OC4(CCN(C(=O)c5ccccc5)CC4F)C(=O)N32)cc1F (stereo partly drawn) [Example 2.9, (5′S,7a′R)-1-(benzenecarbonyl)-3-fluoro-5′-(5-fluoro-6-methylpyridin-3-yl)tetrahydro-3′H-spiro[piperidine-4,2′-pyrrolo[2,1-b][1,3]oxazol]-3′-one] | 106 nM
O=C(c1ccn(C(F)F)n1)N1CCC2(CC1)O[C@@H]1CC[C@@H](c3cc(F)cc(F)c3)N1C2=O [Example 5.41] | 129 nM
O=C(c1ccnnc1)N1CCC2(CC1)O[C@@H]1CC[C@@H](c3cc(F)cc(F)c3)N1C2=O [Example 6.99, (5′S,7a′R)-5′-(3,5-difluorophenyl)-1-(pyridazine-4-carbon-yl)tetrahydro-3′H-spiro[piperidine-4,2′-pyrrolo[2,1-b][1,3]-oxazol]-3′-one] | 146 nM
O=C(c1ncccc1Cl)N1CCC2(CC1)O[C@@H]1CC[C@@H](c3cc(F)cc(F)c3)N1C2=O [Example 6.53, (5′S,7a′R)-1-(3-chloropyridine-2-carbonyl)-5′-(3,5-difluorophenyl)tetra-hydro-3′H-spiro [piperidine-4,2′-pyrrolo[2,1-b][1,3]-oxazol]-3′-one] | 147 nM
O=C(c1cccc(C2CC2)c1)N1CCC2(CC1)O[C@@H]1CC[C@@H](c3ccccc3)N1C2=O [Example 6.156, (5′S,7a′R)-1-(3-cyclopropylbenzene-1-carbonyl)-5′-phen-yltetrahydro-3′H-spiro[piperidine-4,2′-pyrrolo[2,1-b][1,3]oxazol]-3′-one] | < 25 nM
O=C(c1cccc(F)c1)N1CCC2(CC1)O[C@@H]1CC[C@@H](c3ccc(F)cc3)N1C2=O [Example 7.1, (5′S,7a′R)-1-(3-Fluorobenzoyl)-5′-(4-fluorophenyl)tetrahydro-3′H-spiro[piperidine-4,2′-pyrrolo[2,1-b]oxazol]-3′-one] | 121 nM
O=C1N2[C@@H](CC[C@H]2c2ccccc2)OC12CCN(c1csc(C(F)F)c1)CC2 [Example 11.26, (5′S,7a′R)-1-[5-(difluoromethyl)thiophen-3-yl]-5′-phenyltetrahydro-3′H-spiro[piperidine-4,2′-pyrrolo[2,1-b][1,3]oxazol]-3′-one] | 132 nM
N#Cc1cnc(N2CCC3(CC2)O[C@@H]2CC[C@@H](c4ccccc4F)N2C3=O)n2ncnc12 [Example 4.242, 5-[(5′S,7a′R)-5′-(2-fluorophenyl)-3′-oxotetrahydro-1H,3′H-spiro[piperidine-4,2′-pyrrolo[2,1-b] [1,3]oxazol]-1-yl] [1,2,4]triazolo[1,5-c] pyrimidine-8-carbonitrile] | < 25 nM

From patent publication US12180226B2, “Spirotricycle RIPK1 inhibitors and methods of uses thereof” (Merck Sharp & Dohme LLC, priority 2021, dated 2024)
